Several values for one entry are separate records, joined by “and”; a condition that tells them apart may be missing. Equal entries are not always repeated. Where two headings read alike, the source gives them in different places.
Experiments:
[1] = target: T1, SARS-CoV-2 NSP3 Mac1 (Severe acute respiratory syndrome coronavirus 2, UniProt P0DTD1); assay: biochemical; assay type: binding
[2] = target: T1, SARS-CoV-2 NSP3 Mac1; assay type: binding; details: for 1-BDC (PanDDA): 1 minus background density correction; for 1-BDC (PanDDA) / Refined occupancy: crystal soaking of Mac1; for Refined occupancy: ligand occupancy after refinement (phenix.refine)
[3] = tested on: SARS-CoV-2 NSP3 Mac1; assay: Overall hit call (binding in crystallographic soaking or the HTRF-based binding assay)
Description: Supplement pnas.2212931120.sd01.xlsx, sheet "Compound Summary" | column: HIT*

[4] = PanDDA event map 1-BDC, crystal soak, Compound_concentration 100 mM, PanDDA run dmso_34 or nohits_35 per dataset
[5] = crystal soak, Compound_concentration 100 mM, Echo dispense 40 nl, PanDDA run dmso_34 or nohits_35 per dataset
[6] = HTRF ADPr-conjugated peptide displacement, read-out: IC50
[7] = HTRF ADPr-peptide displacement from SARS-CoV-2 Mac1, read-out: IC50
[8] = PanDDA 1-BDC of the event, compound stock 100 mM, Echo dispense volume 80 nl
[9] = crystal soak, compound stock 100 mM, Echo dispense volume 80 nl
[10] = ligand modeled in structure, compound stock 100 mM, Echo dispense volume 80 nl
[11] = PanDDA event map, crystal soak, Compound_concentration 100 mM, Echo_dispense_volume 40 nl
[12] = crystal soak, Compound_concentration 100 mM, Echo_dispense_volume 40 nl, PanDDA run (background map) dmso_34, nohits_35 or nohits_62
[13] = ligand modeled, crystal soak, Compound_concentration 100 mM, Echo_dispense_volume 40 nl
[14] = PanDDA event map background density correction, crystal soak, compound concentration 100 mM
[15] = ligand modeled in the crystal structure, crystal soak, compound concentration 100 mM

Molecule O[C@H]1CCCC[C@H]1Nc1ncnc2[nH]ccc12 (relative stereo) [SRH-0015] has an IC50 ([1]; IC50, HTRF ADPr-peptide displacement from SARS-CoV-2 Mac1) of 132 µM, an IC50 ([1]; IC50 [µM], HTRF ADPr-conjugated peptide displacement) of 132 µM and a Ki ([1]; Ki*** [µM]) of 115 µM. For the same molecule, the 1-BDC [2, 4] was 0.13, the “1-BDC (PanDDA)” value ([2]; PanDDA event map) was 0.13 and the “PanDDA hit?” value [2, 5] was “TRUE”. For the same molecule, the “Modeled?” value ([2]; ligand modeled in this dataset, crystal soak, Compound_concentration 100 mM) was “TRUE”, the Refined occupancy [2] was 26 and the “HIT*” value [3] was “Y”.
With O=C(O)CC1CN(c2ncnc3[nH]c4cc(F)ccc4c23)CC2(CCC2)O1 (stereo not drawn) [LL114_0024] the IC50 [1, 6] was 19.7 µM, the IC50 [1, 7] was 19.6 µM and 20 µM and the Ki ([1]; read-out: Ki***) was 17.1 µM. The 1-BDC [2, 8] was 0.11, the 1-BDC [2, 4] was 0.06 and the “1-BDC (PanDDA)” value ([2]; PanDDA event map) was 0.11. The “PanDDA hit?” value [2, 5] was “TRUE”, the “PanDDA hit?” value [2, 9] was “TRUE” and the “Modeled?” value [2, 10] was “TRUE”. For the same molecule, the Refined occupancy [2] was 22 and the “HIT*” value [3] was “Y”.
Cl.O=C(O)C1CN(c2ncnc3[nH]c4cc(F)ccc4c23)CCO1 (stereo not drawn) [LL114_0033] was tested, and the IC50 [1, 6] was 40.4 µM, the Ki ([1]; read-out: Ki***) was 35.2 µM and the 1-BDC ([2]; PanDDA 1-BDC of the event, compound stock 100 mM, Echo dispense volume 40 nl) was 0.15. The 1-BDC [2, 4] was 0.15, the “1-BDC (PanDDA)” value ([2]; PanDDA event map) was 0.15 and the “PanDDA hit?” value [2, 5] was “TRUE”. For the same molecule, the “PanDDA hit?” value ([2]; crystal soak, compound stock 100 mM, Echo dispense volume 40 nl) was “TRUE”, the “Modeled?” value ([2]; ligand modeled in structure, compound stock 100 mM, Echo dispense volume 40 nl) was “TRUE” and the Refined occupancy [2] was 30. The “HIT*” value [3] was “Y”.
O=C(O)C(O)C1CCCN(c2ncnc3[nH]c4cc(F)ccc4c23)C1 (stereo not drawn) [LL114_0036] showed an IC50 [1, 6] of 34.1 µM, a Ki ([1]; read-out: Ki***) of 29.7 µM and a 1-BDC [2, 8] of 0.24. The 1-BDC [2, 4] was 0.2, the “1-BDC (PanDDA)” value ([2]; PanDDA event map) was 0.24 and the “PanDDA hit?” value [2, 5] was “TRUE”. For the same molecule, the “PanDDA hit?” value [2, 9] was “TRUE”, the “Modeled?” value [2, 10] was “TRUE” and the Refined occupancy [2] was 48. For the same molecule, the “HIT*” value [3] was “Y”.
O=C(O)CCC1CN(c2ncnc3[nH]c4cc(F)ccc4c23)CCO1 (stereo not drawn) [LL114_0041] was tested, and the IC50 [1, 6] was 69.2 µM, the Ki ([1]; read-out: Ki***) was 60.2 µM and the 1-BDC [2, 8] was 0.15. The 1-BDC [2, 4] was 0.15, the “1-BDC (PanDDA)” value ([2]; PanDDA event map) was 0.16 and the 1-BDC [2, 11] was 0.16. The “PanDDA hit?” value [2, 5] was “TRUE”, the “PanDDA hit?” value [2, 12] was “TRUE” and the “PanDDA hit?” value [2, 9] was “TRUE”. The “Modeled?” value [2, 13] was “TRUE”, the Refined occupancy [2] was 32 and the “HIT*” value [3] was “Y”.
Work on Nc1nc(N2CC3(CCC3)C(F)(C(=O)O)C2)c2c(n1)[nH]c1cc(F)ccc12 (stereo not drawn) [LL123_0016] yielded an IC50 [1, 6] of 24.5 µM, a Ki ([1]; read-out: Ki***) of 21.3 µM and a 1-BDC [2, 14] of 0.17. The “1-BDC (PanDDA)” value ([2]; PanDDA event map) was 0.17, the 1-BDC [2, 11] was 0.15 and the “PanDDA hit?” value [2, 12] was “TRUE”. For the same molecule, the “Modeled?” value [2, 15] was “TRUE”, the Refined occupancy [2] was 34 and the “HIT*” value [3] was “Y”.
In the case of O=C(O)C1CN(c2ncnc3[nH]c4cc(F)ccc4c23)CC12CCC2 (stereo not drawn) [LL123_0020], the IC50 [1, 6] is reported as 13.5 µM, the IC50 [1, 7] is reported as 14 µM and the Ki ([1]; read-out: Ki***) is reported as 11.7 µM. For the same molecule, the 1-BDC [2, 8] was 0.12 and 0.17, the 1-BDC [2, 4] was 0.13 and the “1-BDC (PanDDA)” value ([2]; PanDDA event map) was 0.17. For the same molecule, the 1-BDC [2, 11] was 0.17, the “PanDDA hit?” value [2, 5] was “TRUE” and the “PanDDA hit?” value [2, 12] was “TRUE”. The “PanDDA hit?” value [2, 9] was “TRUE”, the “Modeled?” value [2, 13] was “TRUE” and the Refined occupancy [2] was 34. The “HIT*” value [3] was “Y”.
Molecule O=C(O)C1(F)CN(c2ncnc3[nH]c4cc(F)ccc4c23)CC12COC2 (stereo not drawn) [LL123_0031] has an IC50 [1, 6] of 23.2 µM, an IC50 [1, 7] of 23 µM and a Ki ([1]; read-out: Ki***) of 20.2 µM. For the same molecule, the 1-BDC [2, 8] was 0.08, the “1-BDC (PanDDA)” value ([2]; PanDDA event map) was 0.08 and the “PanDDA hit?” value [2, 9] was “TRUE”. For the same molecule, the “Modeled?” value [2, 10] was “TRUE”, the Refined occupancy [2] was 16 and the “HIT*” value [3] was “Y”.
O=C(O)C1(F)CN(c2ncnc3[nH]c4cc(F)ccc4c23)CC1C1CC1 (stereo not drawn) [LL123_0032] gave an IC50 [1, 6] of 41.8 µM, a Ki ([1]; read-out: Ki***) of 36.4 µM and a 1-BDC [2, 8] of 0.14. The 1-BDC [2, 4] was 0.1, the “1-BDC (PanDDA)” value ([2]; PanDDA event map) was 0.12 and the 1-BDC [2, 11] was 0.12. The “PanDDA hit?” value [2, 5] was “TRUE”, the “PanDDA hit?” value [2, 12] was “TRUE” and the “PanDDA hit?” value [2, 9] was “TRUE”. The “Modeled?” value [2, 13] was “TRUE”, the Refined occupancy [2] was 24 and the “HIT*” value [3] was “Y”.
For Cn1ncc2ncnc(NS(=O)(=O)Cc3ccc(CC#N)cc3)c21 [Z6742], the IC50 [1, 6] was 42.4 µM, the Ki ([1]; read-out: Ki***) was 36.9 µM and the “HIT*” value [3] was “Y”.
For O=C(NC1c2cccc(O)c2CC1C(=O)O)c1ccc2[nH]ccc2c1 (stereo not drawn) [Z8539_2004], the IC50 [1, 6] was 7.2 µM, the Ki ([1]; read-out: Ki***) was 6.3 µM and the 1-BDC [2, 14] was 0.41 and 0.22. The “1-BDC (PanDDA)” value ([2]; PanDDA event map) was 0.22, the “Modeled?” value [2, 15] was “TRUE” and the Refined occupancy [2] was 44. For the same molecule, the “HIT*” value [3] was “Y”.
